# Source: US9695155B2, “Herbicidal substituted pyrimidinyloxy benzene compounds” (E. I. DU PONT DE NEMOURS AND COMPANY, priority 2013, dated 2017)
# What was measured:
# Assay in all cases: Test E preemergence
# [1] = test system: goosegrass; assay type: in vivo, Eleusine indica; settings: for Goosegrass plant response rating: scale 0 to 100 (0 no effect, 100 complete control)
# Source text: (§1) Seeds of plant species selected from corn (Zea mays), soybean (Glycine max), velvetleaf (Abutilon theophrasti), lambsquarters (Chenopodium album), wild poinsettia (Euphorbia heterophylla), palmer pigweed (Amaranthus palmeri), waterhemp (common waterhemp, Amaranthus rudis), surinam grass (Brachiaria decumbens), large (Lg) crabgrass (Digitaria sanguinalis), Brazilian crabgrass (Digitaria horizontalis), fall panicum (Panicum dichotomiflorum), giant foxtail (Setaria faberii), green foxtail (Setaria viridis), goosegrass (Eleusine indica), johnsongrass (Sorghum halepense), ragweed (common ragweed, Ambrosia elatior), barnyardgrass (Echinochloa crus-galli), sandbur (southern sandbur, Cenchrus echinatus), arrowleaf sida (Sida rhombifolia), Italian ryegrass (Lolium multiflorum), dayflower (Virginia (VA) dayflower, Commelina virginica), field bindweed (Convolvulus arvensis), morningglory (Ipomoea coccinea), nightshade (eastern black nightshade, Solanum ptycanthum), kochia (Kochia scoparia), yellow nutsedge (Cyperus esculentus), cocklebur (common cocklebur, Xanthium strumarium), smartweed (ladysthumb smartweed, and hairy beggarticks (Bidens pilosa), were planted into a silt loam soil and treated preemergence with test chemicals formulated in a non-phytotoxic solvent mixture which included a surfactant.
# (§2) At the same time, plants from these crop and weed species and also horseweed (Canada horseweed, Conyza canadensis), waterhemp_RES1, (ALS & Triazine resistant common waterhemp, Amaranthus rudis), and waterhemp_RES2, (ALS & HPPD resistant common waterhemp, Amaranthus rudis) were planted in pots containing Redi-Earth® planting medium (Scotts Company, 14111 Scottslawn Road, Marysville, Ohio 43041) comprising spaghnum peat moss, vermiculite, wetting agent and starter nutrients were treated with postemergence applications of test chemicals formulated in the same manner. Plants ranged in height from 2 to 18 cm for postemergence treatments (1- to 4-leaf stage). Treated plants and controls were maintained in a greenhouse for 14 to 21 days, after which time all species were compared to controls and visually evaluated. Plant response ratings, summarized in Table E, are based on a scale of 0 to 100 where 0 is no effect and 100 is complete control. A dash (-) response means no test result.
# [2] = test system: Italian ryegrass; assay type: in vivo, Lolium multiflorum; settings: for Ryegrass, Italian plant response rating: scale 0 to 100 (0 no effect, 100 complete control)
# Source text: as §1, §2
# [3] = test system: sandbur; assay type: in vivo, Cenchrus echinatus; settings: for Sandbur plant response rating: scale 0 to 100 (0 no effect, 100 complete control)
# Source text: as §1, §2
# [4] = test system: surinam grass; assay type: in vivo, Brachiaria decumbens; settings: for Surinam Grass plant response rating: scale 0 to 100 (0 no effect, 100 complete control)
# Source text: as §1, §2
# [5] = test system: barnyardgrass; assay type: in vivo, Echinochloa crus-galli; settings: for Barnyardgrass plant response rating: scale 0 to 100 (0 no effect, 100 complete control)
# Source text: as §1, §2
# [6] = test system: nightshade; assay type: in vivo, Solanum ptycanthum; settings: for Nightshade plant response rating: scale 0 to 100 (0 no effect, 100 complete control)
# Source text: as §1, §2
# [7] = test system: ragweed; assay type: in vivo, Ambrosia elatior; settings: for Ragweed plant response rating: scale 0 to 100 (0 no effect, 100 complete control)
# Source text: as §1, §2
# [8] = test system: kochia; assay type: in vivo, Kochia scoparia; settings: for Kochia plant response rating: scale 0 to 100 (0 no effect, 100 complete control)
# Source text: as §1, §2
# [9] = test system: giant foxtail; assay type: in vivo, Setaria faberii; settings: for Foxtail, Giant plant response rating: scale 0 to 100 (0 no effect, 100 complete control)
# Source text: as §1, §2
# [10] = test system: morningglory; assay type: in vivo, Ipomoea coccinea; settings: for Morningglory plant response rating: scale 0 to 100 (0 no effect, 100 complete control)
# Source text: as §1, §2
# [11] = test system: hairy beggarticks; assay type: in vivo, Bidens pilosa; settings: for Beggarticks plant response rating: scale 0 to 100 (0 no effect, 100 complete control)
# Source text: as §1, §2
# [12] = test system: large (Lg) crabgrass; assay type: in vivo, Digitaria sanguinalis; settings: for Crabgrass, Large plant response rating: scale 0 to 100 (0 no effect, 100 complete control)
# Source text: as §1, §2
# [13] = test system: soybean; assay type: in vivo, Glycine max; settings: for Soybean plant response rating: scale 0 to 100 (0 no effect, 100 complete control)
# Source text: as §1, §2
# [14] = 8 g ai/ha, scale 0 to 100, 0 is no effect, 100 is complete control
# [15] = 125 g ai/ha, scale 0 to 100, 0 no effect, 100 complete control
# [16] = 8 g ai/ha, preemergence, scale 0 to 100, 0 is no effect, 100 is complete control
# [17] = Preemergence, 62 g ai/ha, scale 0 to 100, 0 no effect, 100 complete control
# [18] = preemergence, 125 g ai/ha, scale 0 to 100, 0 no effect, 100 complete control
smiles,measurement,setting,value
"Clc1cnc(Oc2ccccc2-n2cc(Br)cn2)nc1 [Compound 7, 2-[2-(4-bromo-1H-pyrazol-1-yl)phenoxy]-5-chloropyrimidine]","Plant response rating, Goosegrass",[1]; [14],0
same,Goosegrass plant response rating,[1]; 16 g ai/ha,0
same,Goosegrass plant response rating,[1]; 31 g ai/ha,35
same,Goosegrass plant response rating,[1]; 62 g ai/ha,40
same,"Plant response rating, Goosegrass",[1]; [15],75
same,"Plant response rating, Ryegrass, Italian",[2]; [14],0
same,"Ryegrass, Italian plant response rating",[2]; 16 g ai/ha,0
same,"Ryegrass, Italian plant response rating",[2]; 31 g ai/ha,0
same,"Ryegrass, Italian plant response rating",[2]; 62 g ai/ha,0
same,"Plant response rating, Ryegrass, Italian",[2]; [15],20
same,"Plant response rating, Sandbur",[3]; [14],0
same,Sandbur plant response rating,[3]; 16 g ai/ha,0
same,Sandbur plant response rating,[3]; 31 g ai/ha,0
same,Sandbur plant response rating,[3]; 62 g ai/ha,0
same,"Plant response rating, Sandbur",[3]; [15],35
same,"Plant response rating, Surinam Grass",[4]; [14],0
same,Surinam Grass plant response rating,[4]; 16 g ai/ha,0
same,Surinam Grass plant response rating,[4]; 31 g ai/ha,0
same,Surinam Grass plant response rating,[4]; 62 g ai/ha,10
same,"Plant response rating, Surinam Grass",[4]; [15],35
same,"Plant response rating, Barnyardgrass",[5]; [16],0
same,Barnyardgrass plant response rating,"[5]; 16 g ai/ha, preemergence",0
same,Barnyardgrass plant response rating,"[5]; 31 g ai/ha, preemergence",0
same,"Plant response rating, Barnyardgrass",[5]; [17],0
same,"Plant response rating, Barnyardgrass",[5]; [18],0
same,"Plant response rating, Nightshade",[6]; [14],0
same,Nightshade plant response rating,[6]; 16 g ai/ha,65
same,Nightshade plant response rating,[6]; 31 g ai/ha,98
same,Nightshade plant response rating,[6]; 62 g ai/ha,98
same,"Plant response rating, Nightshade",[6]; [15],98
same,"Plant response rating, Ragweed",[7]; [14],0
same,Ragweed plant response rating,[7]; 16 g ai/ha,0
same,Ragweed plant response rating,[7]; 31 g ai/ha,0
same,Ragweed plant response rating,[7]; 62 g ai/ha,0
same,"Plant response rating, Ragweed",[7]; [15],0
same,"Plant response rating, Kochia",[8]; [14],0
same,Kochia plant response rating,[8]; 16 g ai/ha,0
same,Kochia plant response rating,[8]; 31 g ai/ha,0
same,Kochia plant response rating,[8]; 62 g ai/ha,50
same,"Plant response rating, Kochia",[8]; [15],95
same,"Plant response rating, Foxtail, Giant",[9]; [14],15
same,"Foxtail, Giant plant response rating",[9]; 16 g ai/ha,20
same,"Foxtail, Giant plant response rating",[9]; 31 g ai/ha,20
same,"Foxtail, Giant plant response rating",[9]; 62 g ai/ha,40
same,"Plant response rating, Foxtail, Giant",[9]; [15],90
same,"Plant response rating, Morningglory",[10]; [14],0
same,Morningglory plant response rating,[10]; 16 g ai/ha,0
same,Morningglory plant response rating,[10]; 31 g ai/ha,0
same,Morningglory plant response rating,[10]; 62 g ai/ha,0
same,"Plant response rating, Morningglory",[10]; [15],0
same,"Plant response rating, Beggarticks",[11]; [16],0
same,Beggarticks plant response rating,"[11]; 16 g ai/ha, preemergence",0
same,Beggarticks plant response rating,"[11]; 31 g ai/ha, preemergence",0
same,"Plant response rating, Beggarticks",[11]; [17],0
same,"Plant response rating, Beggarticks",[11]; [18],0
same,"Plant response rating, Crabgrass, Large",[12]; [14],0
same,"Crabgrass, Large plant response rating",[12]; 16 g ai/ha,0
same,"Crabgrass, Large plant response rating",[12]; 31 g ai/ha,70
same,"Crabgrass, Large plant response rating",[12]; 62 g ai/ha,75
same,"Plant response rating, Crabgrass, Large",[12]; [15],98
same,"Plant response rating, Soybean",[13]; [14],0
same,Soybean plant response rating,[13]; 16 g ai/ha,0
same,Soybean plant response rating,[13]; 31 g ai/ha,0
same,Soybean plant response rating,[13]; 62 g ai/ha,40
same,"Plant response rating, Soybean",[13]; [15],50
